For assay [1], the target named is T1, JAK2(JH1) (Homo sapiens, UniProt O60674).
T1 construct: JAK2-JH1 (the kinase domain of JAK2)
Nature of the assay: Kinase (JH1) experiment, JAK2(JH1). It is filed as biochemical. Here is the method: (§1) • 1. Experimental method • 1.1. Pseudokinase (JH2) experiment operation was as follows: • 1.1.1. The compound was dissolved with DMSO to a storage concentration of 10 mM. • 1.1.2. A compound concentration of 200 times the final concentration was prepared in a compound dilution plate, which was diluted from the highest concentration point with a total of 4 concentration points using the 27 times dilution method, and then transferred to the Echo plate. • 1.1.3. The compound was flushed from the Echo plate to the 384 well experimental plate using an Echo instrument, thereby obtaining a total of 11 concentration points of the compound with three-fold dilution matrix. • 1.1.4. 5 ul of TYK2-JH2 or JAK1-JH2 pseudokinase, 3 times the final concentration, was added to the 384-well experimental plate. • 1.1.5. 5 ul of Tb, 3 times the final concentration, was added to the 384-well experimental plate. • 1.1.6. 5 ul of Tracer, 3 times the final concentration, was added to the 384-well experimental plate. • 1.1.7. Centrifuging for 30 seconds and incubating at room temperature for 60 minutes. • 1.1.8. The fluorescence ratio of 520 nm to 495 nm was read using Envision Microplate Reader (PerkinElmer). • 1.2. Kinase (JH1) experiment operation was as follows: • 1.2.1. […] The fluorescence ratio at 665 nm and 615 nm were read using Envision Microplate Reader (PerkinElmer). • 1.3. […]

Assay [2] addresses T2, JAK3(JH1) (Homo sapiens, UniProt P52333).
T2 construct: JAK3-JH1 (the kinase domain of JAK3)
Nature of the assay: Kinase (JH1) experiment, JAK3(JH1). It is filed as biochemical. The procedure:
as §1

The test system of assay [3] is pSTAT5 in CD3+ cells (IFN-α stimulated). Nature of the assay: Inhibition of IFN-α-induced pSTAT5 expression in CD3+ cells of human whole blood, FACS detection. The assay is classed as cell-based. Particulars: 0.25 h, fresh human whole blood, IFN-α 20 ng/ml, 15 minutes. Here is the method: The Inhibitory Effect of Compounds on the expression of pSTAT5 in CD3+ Cells Using FACS Detection • 1. Experimental Materials and instruments: • 1.1. Experimental reagents • DMSO, Sigma, Cat #D2650-100 ml, stored at room temperature. • Perm buffer III, BD Biosciences, Cat #558050, stored at 4° C. • Lyse/Fix buffer, BD Biosciences, Cat #558049, stored at room temperature. • EDTA, Invitrogen, Cat #15575-038, stored at room temperature. • PBS, Hyclone, Cat #SH30256.01, stored at 4° C. • PE Mouse Anti-Human CD3, BD Biosciences, Cat #555333, stored at 4° C. • Mouse anti-human Phospho-STATS (pY694) (Alexa Fluor® 647 Conjugate), BD Biosciences, Cat #562076, stored at 4° C. • IFN-α, Biolegend, Cat #592702 • 1.2 Experimental consumables • Microplate, 96 Well, PP, v-bottom, Greiner, Cat #GN651201-100EA. • 5 ml polystyrene round bottom tube, FALCON, Cat #04318011. • 96 square well storage plate, Thermo, Cat #AB-0661. • 96-well plate, Corning, Cat #3599. • 1.3 Instruments • CO2 cell incubator: MCO-15AC (Thermo) • Pipette: 0.2-10 μL, 20-200 μL, 200-1000 μL (Thermo) • Multichannel pipette: 0.2-10 μL, 5-50 μL, 20-300 μL (Raining) • Centrifuge: Thermo Centrifuge ST 40R; Thermo LEGEND Micro 21R • Water system: Millipore Milli-Q Reference system • Freezer: Haier ultralow temperature freezer • Haier 4 centigrade refrigerator • Haier −20 centigrade freezer • Vortex: EARTH REQUIRED • Plate Shaker: QI LIN BEI ER; MH-2 • Flow Cytometer: BD FACSVerse™ Flow Cytometer • 2 Experimental method: • 2.1 Compound Dilution • 1) On the day of experiment, the compound was prepared into a 10 mM solution with DMSO, diluted to 1.5 mM with DMSO, and then diluted to 8 gradient concentrations with 3-fold dilutions. • 2) 5 μl of diluted compound was transferred into 120 ul of DPBS solution with 0.1% BSA. • 3) Positive and negative control groups were set up, with an addition of 0.5% DMSO to the positive and negative control groups. • 2.2 Experimental procedure • 1) 67.5 ul of fresh human whole blood was added to the 96-well cell culture plate. • 2) 3.5 ul of diluted compound was added and mixed well. • 3) Incubating in a 37° C. incubator for 60 minutes. • 4) IFN-α was diluted in DPBS containing 0.1% BSA to 400 ng/ml, and PE anti-hCD3 antibody was diluted in DPBS containing 0.1% BSA to 5-fold. After the above 60-minute incubation, diluted PE anti-hCD3 antibody was added at 5 ul per well and diluted IFN-α was added at 4 ul per well, i.e., the final concentration of IFN-α per well was 20 ng/ml. • 5) Incubating in a 37° C. incubator for 15 minutes. • 6) All cells were transferred to a 96-well deep well plate and 1 ml of 37° C. preheated lysis/fix buffer was added. • 7) Incubating at 37° C. in dark for 10 minutes. • 8) Centrifuging at 600 g for 5 minutes and then the supernatant was discarded. Washing by adding 1 ml PBS for twice and centrifuging. • 9) 1 ml of Perm buffer III was added to cell precipitation. • 10) Incubating at 37° C. in dark for 30 minutes. • 11) Centrifuging at 600 g for 5 minutes and then the supernatant was discarded. Washing by adding 1 ml PBS for twice and centrifuging. • 12) APC anti-human pSTAT5 antibody was diluted in staining buffer, and then added to cell wells at 100 ul per well and mixed well. • 13) Incubating at room temperature for 40 minutes. • 14) Staining buffer was added and washed twice, 1 ml for each well, centrifuging at 600 g for 5 minutes. • 15) After discarding the supernatant, the cell precipitation was resuspended in 300 ul of staining buffer. • 16) Sample loading and analysing in a flow cytometer.

Assay [4] has as its target T3, TYK2(JH1) (Homo sapiens, UniProt P29597).
T3 construct: TYK2-JH1 (the kinase domain of TYK2)
T3 sequence (P29597 897-1176 limits assumed): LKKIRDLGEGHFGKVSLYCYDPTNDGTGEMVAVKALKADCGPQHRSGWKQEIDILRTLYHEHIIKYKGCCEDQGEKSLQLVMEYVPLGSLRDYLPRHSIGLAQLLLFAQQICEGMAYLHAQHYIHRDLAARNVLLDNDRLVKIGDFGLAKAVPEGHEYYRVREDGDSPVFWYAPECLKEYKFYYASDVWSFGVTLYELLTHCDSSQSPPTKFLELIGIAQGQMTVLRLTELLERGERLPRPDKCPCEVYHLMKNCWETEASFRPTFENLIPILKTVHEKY
Nature of the assay: Kinase (JH1) experiment, TYK2(JH1). The assay is classed as biochemical. The procedure: as §1

For assay [5], the target named is JAK1(JH2) (Homo sapiens, UniProt P23458). Nature of the assay: Pseudokinase (JH2) experiment with Tb/Tracer, JAK1-JH2. The assay is classed as binding. The procedure:
as §1

The target of assay [6] is TYK2(JH2) (Homo sapiens, UniProt P29597). Nature of the assay: Pseudokinase (JH2) experiment with Tb/Tracer, TYK2-JH2. The assay is classed as binding. The procedure:
as §1

The target of assay [7] is T4, JAK1(JH1) (Homo sapiens, UniProt P23458).
T4 construct: JAK1-JH1 (the kinase domain of JAK1)
T4 sequence (P23458 875-1153 limits assumed): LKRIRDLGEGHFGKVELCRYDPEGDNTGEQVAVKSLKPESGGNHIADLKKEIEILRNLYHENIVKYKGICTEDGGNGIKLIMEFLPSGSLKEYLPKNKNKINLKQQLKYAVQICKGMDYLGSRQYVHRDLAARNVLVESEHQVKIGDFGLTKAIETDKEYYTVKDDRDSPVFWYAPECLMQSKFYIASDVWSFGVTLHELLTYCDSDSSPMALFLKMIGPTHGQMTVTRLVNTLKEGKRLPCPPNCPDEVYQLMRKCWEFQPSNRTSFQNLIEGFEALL
Nature of the assay: Kinase (JH1) experiment, JAK1(JH1). The assay is classed as biochemical. Here is the method: as §1

The mark [8] stands for this setting: selectivity ratio versus TYK2-JH2.

The record followed here is patent US12655108B2, “Heterocyclic compound as TYK2 pseudokinase domain inhibitor, synthetic method, and use” (ZHEJIANG WENDA PHARMA TECHNOLOGY LTD., priority 2021, dated 2026).

Each structure is given as a SMILES string.

T2 sequence (P52333 822-1111 limits assumed): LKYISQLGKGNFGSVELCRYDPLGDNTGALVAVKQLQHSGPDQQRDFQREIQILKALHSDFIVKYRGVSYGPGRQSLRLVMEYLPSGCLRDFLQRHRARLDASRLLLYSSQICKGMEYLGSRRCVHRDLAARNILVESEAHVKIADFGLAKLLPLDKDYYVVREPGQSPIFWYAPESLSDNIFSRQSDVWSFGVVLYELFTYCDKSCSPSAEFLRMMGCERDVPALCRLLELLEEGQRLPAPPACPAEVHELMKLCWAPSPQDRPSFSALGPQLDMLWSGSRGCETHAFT
Chain of TYK2(JH2) (P29597 589-875 limits assumed): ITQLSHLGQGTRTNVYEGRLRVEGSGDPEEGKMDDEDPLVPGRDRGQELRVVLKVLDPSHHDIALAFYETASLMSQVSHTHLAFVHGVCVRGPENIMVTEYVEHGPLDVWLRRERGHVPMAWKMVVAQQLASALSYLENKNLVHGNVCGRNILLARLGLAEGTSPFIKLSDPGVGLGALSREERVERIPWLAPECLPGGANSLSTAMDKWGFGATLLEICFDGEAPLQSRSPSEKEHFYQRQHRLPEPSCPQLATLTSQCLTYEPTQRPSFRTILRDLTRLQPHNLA
T1 sequence (O60674 849-1124 limits assumed): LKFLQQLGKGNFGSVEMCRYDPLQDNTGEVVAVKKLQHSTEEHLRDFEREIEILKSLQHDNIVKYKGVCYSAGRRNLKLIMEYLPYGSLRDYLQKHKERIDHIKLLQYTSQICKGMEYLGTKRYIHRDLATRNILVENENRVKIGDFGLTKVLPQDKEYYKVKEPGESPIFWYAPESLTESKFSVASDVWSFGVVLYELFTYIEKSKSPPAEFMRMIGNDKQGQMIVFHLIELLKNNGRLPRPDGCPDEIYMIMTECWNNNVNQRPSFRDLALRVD
Chain of JAK1(JH2) (P23458 583-855 limits assumed): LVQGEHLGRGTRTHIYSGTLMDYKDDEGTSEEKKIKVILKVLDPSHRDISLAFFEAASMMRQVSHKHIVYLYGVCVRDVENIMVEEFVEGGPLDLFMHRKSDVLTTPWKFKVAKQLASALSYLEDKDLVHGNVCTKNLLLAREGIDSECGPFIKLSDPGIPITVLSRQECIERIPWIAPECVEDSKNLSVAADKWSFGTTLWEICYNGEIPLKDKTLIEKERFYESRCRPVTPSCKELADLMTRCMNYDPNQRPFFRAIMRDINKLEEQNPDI

`[2H]C([2H])([2H])NC(=O)c1nnc(NC(=O)C2CC2)cc1Nc1ncccc1S(=O)(=O)C1CC1` [Compound 3]: the IC50 (commonly the midpoint of a concentration-inhibition curve) in assay [1] (kinase domain) turned out to be 2810 nM; in assay [2] (kinase domain), 2380 nM; in assay [3], 64 nM; in assay [4] (kinase domain) it was 4310 nM; in assay [5] (pseudokinase domain), 53.1 nM; in assay [6] (pseudokinase domain), 0.32 nM. The molecule also had an IC50 in assay [7] (kinase domain) of 3190 nM. Besides, in assay [1] (setting [8]), the “IC50Other/IC50TYK2-JH2, JAK2(JH1)” value was 8790. Moreover, the “IC50Other/IC50TYK2-JH2, JAK3(JH1)” value in assay [2] (setting [8]) was 7432. Moreover, the “IC50Other/IC50TYK2-JH2, TYK2(JH1)” value in assay [4] (setting [8]) stood at 13480. Moreover, in assay [5] (setting [8]), the “IC50Other/IC50TYK2-JH2, JAK1(JH2)” value came to 166. Besides, the “IC50Other/IC50TYK2-JH2, TYK2(JH2)” value in assay [6] (reference ratio, TYK2-JH2 versus itself) came out at 1. For the same molecule, in assay [7] (setting [8]), the “IC50Other/IC50TYK2-JH2, JAK1(JH1)” value was 9955.
Take `[2H]C([2H])([2H])NC(=O)c1nnc(NC(=O)C2CC2)cc1Nc1ccccc1S(=O)(=O)C1CC1` [Compound 1]: in assay [3], the half-maximal inhibitory concentration (IC50) amounted to 2800 nM.
As to `[2H]C([2H])([2H])NC(=O)c1nnc(NC(=O)C2CC23CC3)cc1Nc1nccnc1S(=O)(=O)C1CC1` (stereo not drawn) [Compound 5], in assay [3], half-maximal inhibition (IC50) required 2110 nM.
On the same count and under the same terms, under `[2H]C([2H])([2H])NC(=O)c1cnc(NC(=O)C2CC2)cc1Nc1ncccc1S(=O)(=O)C1CC1` [Compound 6] stands 128 nM; under `[2H]C([2H])([2H])NC(=O)c1nnc(NC(=O)C2CC23CC3)cc1Nc1ncccc1S(=O)(=O)C1CC1` (stereo not drawn) [Compound 4], 168 nM.
The same measure, in the same setting: as for `[2H]C([2H])([2H])NC(=O)c1nnc(NC(=O)C2CC2)cc1Nc1nccnc1S(=O)(=O)C1CC1` [Compound 2], the figure is 867 nM.
